Among the test systems are A498 renal; COLO 205 colon; LOX IMVI melanoma; SF-268 CNS; SF-539 CNS; SN12C renal; SNB-19 CNS; SW-620 colon; T-47D breast; MOLT-4 leukemia.
What all share (experiment): NCI tumour cell line growth inhibition, 48 h

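1) Cells in 96-well plates. 2) Compound, 48 h, 5 concentrations. 3) Linear interpolation between surrounding doses. 4) Unreached endpoint = highest concentration. GI50 is the concentration that inhibits growth by half. TGI marks complete inhibition of growth.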

In PubChem BioAssay (NCI) one finds GI50 and TGI data, which are given here for ten compounds.

As to `COc1ccccc1Nc1nc2ccccc2c2occc12`, the GI50 in the assay with A498 renal is 21.2 µM; in the assay with COLO 205 colon it was 12.6 µM; in the assay on LOX IMVI melanoma, 9.28 µM; with SF-268 CNS, 12.3 µM; in the assay with SF-539 CNS, 9.76 µM; with SN12C renal, 10.7 µM. In addition, the GI50 in the assay on SNB-19 CNS was 14.5 µM; in the assay on SW-620 colon it was 22.6 µM; with T-47D breast, 27.5 µM. In addition, the TGI is 43.1 µM in the assay on A498 renal; over 50 µM with COLO 205 colon; 17.4 µM with LOX IMVI melanoma; over 50 µM with SF-268 CNS; 21.5 µM in the assay with SF-539 CNS; 33.8 µM in the assay on SN12C renal. In addition, the TGI in the assay with SNB-19 CNS, with SW-620 colon and with T-47D breast was over 50 µM each time.

For the compound `NC(=NCCO)c1ccc(N2CCCN(c3ccc(C(N)=NCCO)cc3)CC2)cc1`, the GI50 in the assay with COLO 205 colon was over 100 µM; with LOX IMVI melanoma it was over 100 µM; with SN12C renal, 8.8 µM; in the assay on SNB-19 CNS, over 100 µM; with T-47D breast, over 100 µM. In addition, the TGI in the assay on COLO 205 colon, in the assay with LOX IMVI melanoma, in the assay on SN12C renal, in the assay with SNB-19 CNS and with T-47D breast was over 100 µM each time.

Consider `Cc1ccc(S(=O)(=O)N[C@@H](Cc2ccccc2)C(=O)CCl)cc1`, for which the GI50 in the assay with COLO 205 colon was 19.9 µM; with LOX IMVI melanoma it was 2.31 µM; with MOLT-4 leukemia, 1.99 µM; with SF-539 CNS it was 2.26 µM; in the assay with SW-620 colon it was 10.2 µM; in the assay on T-47D breast, 21.4 µM. Further, the TGI in the assay on COLO 205 colon is 52.3 µM; with LOX IMVI melanoma, 10.4 µM; in the assay with MOLT-4 leukemia, over 100 µM; with SF-268 CNS, 43.6 µM; in the assay on SF-539 CNS, 5.68 µM; in the assay on SNB-19 CNS, 47.2 µM. The TGI in the assay on SW-620 colon is 59.4 µM; in the assay on T-47D breast, over 100 µM.

Take `Oc1cc2c(cc1C(c1ccc3c(c1)OCO3)N1CCN(C(c3ccc4c(c3)OCO4)c3cc4c(cc3O)OCO4)CC1)OCO2` (centres undefined): the TGI in the assay with COLO 205 colon amounted to 90.8 µM; with LOX IMVI melanoma, 18.7 µM; with MOLT-4 leukemia, 28.4 µM; in the assay on SF-268 CNS, 59.3 µM; with SF-539 CNS, 33.9 µM; in the assay with SN12C renal it was 31 µM. For the same compound, the TGI with SNB-19 CNS was 43.6 µM; in the assay with SW-620 colon, 25.3 µM; with T-47D breast it was 34.6 µM.

As for `O=c1oc2c(cc1-c1ccccc1)C(O)Oc1ccccc1-2` (centres undefined), the GI50 is 7.98 µM in the assay on A498 renal; 7.72 µM in the assay on COLO 205 colon; 13 µM in the assay with LOX IMVI melanoma; 16.3 µM in the assay with SF-268 CNS; 12.4 µM in the assay with SF-539 CNS; 20.5 µM in the assay on SN12C renal. Moreover, the results for the GI50 in the assay on SNB-19 CNS, with SW-620 colon and with T-47D breast were 6.38 µM, 4.37 µM and 4.41 µM, respectively. Moreover, the TGI in the assay with A498 renal is 44.7 µM; in the assay on COLO 205 colon, 25.9 µM; in the assay with LOX IMVI melanoma, over 100 µM; in the assay with SF-268 CNS, 83.6 µM; in the assay with SF-539 CNS, 98 µM; with SN12C renal, over 100 µM. Also, the TGI was over 100 µM in the assay with SNB-19 CNS, over 100 µM in the assay with SW-620 colon and 22.3 µM in the assay on T-47D breast.

Turning to `COc1cc2oc(-c3cccc(C(=O)Nc4ccc(C)cc4)c3)cc(=O)c2c(OC)c1OC`, the GI50 is 1.05 µM in the assay on COLO 205 colon; 0.32 µM with LOX IMVI melanoma; 5.8 µM in the assay on MOLT-4 leukemia; 5.61 µM in the assay on SF-268 CNS; 2.58 µM in the assay with SF-539 CNS; 1.91 µM in the assay with SN12C renal. For the same compound, the GI50 is 6.49 µM in the assay on SNB-19 CNS, 4.73 µM in the assay with SW-620 colon and 1.94 µM in the assay with T-47D breast. The TGI was 2.6 µM in the assay on COLO 205 colon; 3.97 µM in the assay on LOX IMVI melanoma; over 100 µM with MOLT-4 leukemia; over 100 µM in the assay on SF-268 CNS; 10.5 µM with SF-539 CNS; over 100 µM in the assay with SN12C renal. Further, the TGI with SNB-19 CNS, in the assay with SW-620 colon and with T-47D breast was over 100 µM each time.

`CNC1=CC(=O)C2=C(C1=O)C1C3=C(C(=O)C(Br)=C(OC)C3=O)C2c2ccccc21` (centres undefined): the GI50 in the assay on COLO 205 colon is 9.89 µM; in the assay on MOLT-4 leukemia it was 1.12 µM; in the assay on SF-268 CNS, 1.87 µM; in the assay on SF-539 CNS, 1.23 µM; with SN12C renal, 1.05 µM; in the assay on SNB-19 CNS, 2.82 µM. Also, the figures for the GI50 in the assay on SW-620 colon and in the assay with T-47D breast were 2.88 µM and 1.44 µM, respectively. Also, the TGI was 22 µM in the assay with COLO 205 colon; over 50 µM in the assay on MOLT-4 leukemia; 10.3 µM in the assay with SF-268 CNS; 2.75 µM with SF-539 CNS; 2.07 µM in the assay on SN12C renal; 11.6 µM with SNB-19 CNS. In addition, the TGI was over 50 µM in the assay with SW-620 colon and 15.7 µM with T-47D breast.

For the compound `CCCCCCCC(=O)NS(=O)(=O)c1ccccc1`, the TGI with A498 renal, in the assay on COLO 205 colon, with LOX IMVI melanoma, in the assay on MOLT-4 leukemia, in the assay with SF-268 CNS and in the assay on SF-539 CNS was over 100 µM throughout. In addition, the TGI in the assay with SNB-19 CNS, in the assay on SW-620 colon and with T-47D breast was over 100 µM each time.

In the case of `COc1ccc(/C(=C\c2cc(OC)c(OC)c(OC)c2)C(=O)O)cc1`, the TGI is 53.3 µM with A498 renal; 35.2 µM in the assay with COLO 205 colon; over 100 µM with LOX IMVI melanoma; 86.3 µM in the assay on MOLT-4 leukemia; over 100 µM with SF-268 CNS; 39 µM in the assay on SF-539 CNS. The TGI with SN12C renal, with SNB-19 CNS and in the assay on SW-620 colon was over 100 µM each time.

Turning to `Clc1ccc(-c2nc(C(Cl)Cl)nc3cc(-c4ccccc4)nn23)cc1`, the GI50 with A498 renal was 0.912 µM; with LOX IMVI melanoma it was over 50 µM; in the assay with MOLT-4 leukemia, 1.74 µM; in the assay with SF-268 CNS, 1.7 µM; with SF-539 CNS it was 2.34 µM; in the assay with SN12C renal, over 50 µM. The GI50 with SNB-19 CNS is 1.49 µM; in the assay on SW-620 colon, 1.01 µM; in the assay on T-47D breast, 1.73 µM. Also, the TGI in the assay on A498 renal was 2.21 µM; with LOX IMVI melanoma, over 50 µM; in the assay on MOLT-4 leukemia, over 50 µM; in the assay with SF-268 CNS, over 50 µM; in the assay with SF-539 CNS, over 50 µM; with SN12C renal it was over 50 µM. In addition, the TGI with SNB-19 CNS, with SW-620 colon and with T-47D breast was over 50 µM throughout.
